In ChEMBL document CHEMBL5360661, “Structure-Activity Relationship Study of 1H-Pyrrole-3-carbonitrile Derivatives as STING Receptor Agonists” (ACS Med Chem Lett, 2023):

Experiments:
Homo sapiens = species: Homo sapiens; experiment: Binding affinity to recombinant human STING R232H variant C-terminal domain (139 to 378 residues) expressed in Escherichia coli BL21 (DE3) cells assessed as thermal stabilization by measuring change in melting temperature at 50 uM incubated at 25 to 95 degreeC for 45 mins by SYPRO orange dye based fluorescence analysis
[1] = biological target: Stimulator of interferon genes protein (Homo sapiens, UniProt Q86WV6); experiment: Agonist activity at STING in PMA-differentiated wildtype human THP1-Blue ISG cells harboring IRF-inducible SEAP reporter construct incubated for 24 hrs by QUANTI-Blue assay; type: cell-based
Sequence of Stimulator of interferon genes protein (Q86WV6 whole entry): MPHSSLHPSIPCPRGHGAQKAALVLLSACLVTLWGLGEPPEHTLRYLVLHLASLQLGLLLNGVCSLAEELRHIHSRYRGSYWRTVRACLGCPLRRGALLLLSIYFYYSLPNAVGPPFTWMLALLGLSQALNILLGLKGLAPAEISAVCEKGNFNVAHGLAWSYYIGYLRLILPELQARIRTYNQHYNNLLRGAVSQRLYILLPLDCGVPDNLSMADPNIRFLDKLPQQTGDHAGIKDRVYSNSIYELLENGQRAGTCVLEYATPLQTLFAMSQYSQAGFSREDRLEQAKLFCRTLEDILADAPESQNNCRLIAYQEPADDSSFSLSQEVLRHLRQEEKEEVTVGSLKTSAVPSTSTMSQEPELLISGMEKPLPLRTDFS

| Structure (SMILES) | ΔTm (Homo sapiens) [°C] | EC50 [1] [µM] |
| --- | --- | --- |
| N#Cc1ccn(-c2ccc(C(=O)Nc3cc(F)c(F)cc3C(=O)O)nn2)c1 | 3.5 |  |
| Cc1cc(NC(=O)c2ccc(-n3ccc(C#N)c3)nn2)c(C(=O)O)cc1F | 1.5 | 46 |
| CCc1cc(C(=O)O)c(NC(=O)c2ccc(-n3ccc(C#N)c3)nn2)cc1F | 0.5 | 34.9 |
| COc1cc(C(=O)O)c(NC(=O)c2ccc(-n3ccc(C#N)c3)nn2)cc1F | 0 | 44.3 |
| N#Cc1ccn(-c2ccc(C(=O)Nc3cc(F)c(Cl)cc3C(=O)O)nn2)c1 | 1.5 | 42.2 |
| C=Cc1cc(NC(=O)c2ccc(-n3ccc(C#N)c3)nn2)c(C(=O)O)cc1F | 4.5 | 19.8 |
| N#Cc1ccn(-c2ccc(C(=O)Nc3cc(Br)c(Br)cc3C(=O)O)nn2)c1 | 6.5 | 6.33 |
| N#Cc1ccn(-c2ccc(C(=O)Nc3cc(F)c(Br)cc3C(=O)O)nn2)c1 | 1 | 44.2 |
| CC#Cc1cc(NC(=O)c2ccc(-n3ccc(C#N)c3)nn2)c(C(=O)O)cc1F | 0.5 | 35 |
| N#Cc1ccn(-c2ccc(C(=O)Nc3cc(C4CC4)c(F)cc3C(=O)O)nn2)c1 | 1 | 29.5 |
| N#Cc1ccn(-c2ccc(C(=O)Nc3cc(C#CC4CC4)c(F)cc3C(=O)O)nn2)c1 | -0.5 | 69.8 |
